Results from US11022604B2, “Dock derived compound against laminin receptor (37 LR) and uses thereof” (Purdue Research Foundation, priority 2017, dated 2021).
Like-named read-outs stand apart in the source and are kept apart here.

Test system: PC-3 androgen independent metastatic prostate cancer cells
Assay: Cell viability screen (CCK-8), PC-3 cells
Format: cell-based
Conditions: CCK-8, 96 hours, read-out: IC50, inhibition of cell viability
Method: FIGS. 2A-2H. Dose response curves. Does response curves for cell lines treated with 6, 10.5, 18.6, 32.4, 57.5 and 100 μM of compound (log) for 96 hours using % cell viability derived from CCK-8 absorbance readings at 450 nm (n=3, mean±SEM). A DMSO equivalent control (n=2±SEM) was also included for each cell line tested: Ea.hy.926 endothelial cells (Endo), LNCaP androgen dependent metastatic prostate cancer cells, TC2-Ras mouse prostate cancer cells, PC-3 androgen independent metastatic prostate cancer cells, and SH-SY5Y neruoblastoma cells. […]
Cell Viability Screen. […] Cell viability was measured by using the cell counting kit-8 (CCK-8, Dojindo). […] CCK-8 absorbance was measured at 450 nm using a GloMax Multimode Reader (Promega). Readings were performed the day after seeding to normalize for variations in cell seeding and after 96 hours of compound treatment. After each reading, CCK-8 media was removed and replaced with media containing compound as described previously. […] As described previously, an initial baseline CCK-8 reading was performed at 24 hours post seeding to correct for variations in seeding density. First, 450 nm values for each well were subtracted from media only readings to correct for baseline absorbance. Then, the 96 hour readings were normalized to their respective 24 hour readings to control for seeding variation. […]

IC50: ~1000 nM
IC50 (Homo sapiens, PC-3, 96 h): ~800 nM
Compound: O=C(c1cc(F)cc2c1OCOC2)N1CCN(C2c3ccccc3-c3ccccc32)CC1 [Compound C3, [4-(9h-fluoren-9-yl)piperazino](6-fluoro-4h-1,3-benzodioxin-8-yl)methanone]
